Reference: paper PMC9905601, “Archaeal DNA-import apparatus is homologous to bacterial conjugation machinery” (Nature Communications, 2023)

Target: T1, P. calidifontis protein Pcal_0765, TedC (Pyrobaculum calidifontis, UniProt A3MU74)
T1 sequence (A3MU74 23-153): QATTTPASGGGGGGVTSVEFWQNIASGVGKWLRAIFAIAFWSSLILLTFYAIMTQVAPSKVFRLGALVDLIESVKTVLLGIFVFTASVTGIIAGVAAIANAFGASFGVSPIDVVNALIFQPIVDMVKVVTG
Assay: cryo-EM structure of native pilus, […] Å
Type: binding

## C[C@@H]1CCC[C@H](C)CCC[C@@H](C)CC[C@H](C)CCC[C@@H](C)CCC[C@H](C)CCC[C@H](C)CCOC[C@H](CO)OCC[C@H](C)CCC[C@H](C)CCC[C@H](C)CCC[C@@H](C)CC[C@H](C)CCC[C@@H](C)CCC[C@H](C)CCC[C@H](C)CCOC[C@H](CO)OCC[C@H](C)CCC1 [GDGT-0]
  cryo-EM structure of native pilus, 4.0 Å: we have modeled the simplest form, GDGT-0, into the cryo-EM density
